ChEMBL document CHEMBL6134816, “The discovery of novel N-heterocyclic-based AKT inhibitors with potential efficacy against prostate cancer” (Eur J Med Chem, 2025)
Each block holds one molecule with its values, some of them ahead of it. Activity calls are given as the source filed them. No cut-off for these calls is given here.

Tests used:
PC-3 [1] = test: cells; conditions: Homo sapiens, PC-3, 72 h
Description: Antiproliferative activity against human PC-3 cells assessed as inhibition of cell proliferation incubated for 72 hrs by MTT assay

PC-3 [2] = test: Induction of apoptosis in human PC-3 cells assessed as apoptotic rate at 1 uM incubated for 48 hrs by Annexin V-FITC/PI staining based flow cytometric analysis relative to control; format: functional
PC-3 [3] = test: Induction of apoptosis in human PC-3 cells assessed as apoptotic rate at 5 to 10 uM incubated for 48 hrs by Annexin V-FITC/PI staining based flow cytometric analysis relative to control; format: functional; conditions: dose 5-10 µM
PC-3 [4] = test: Cell cycle arrest in human PC-3 cells assessed as accumulation of cells at G1 phase at 1 uM incubated for 48 hrs by PI staining based flow cytometric analysis (reference value: 60.75 %); format: functional
PC-3 [5] = test: Cell cycle arrest in human PC-3 cells assessed as accumulation of cells at S phase at 1 uM incubated for 48 hrs by PI staining based flow cytometric analysis (reference value: 24.79 %); format: functional
PC-3 [6] = test: Cell cycle arrest in human PC-3 cells assessed as accumulation of cells at G2 phase at 1 uM incubated for 48 hrs by PI staining based flow cytometric analysis (reference value: 14.45 %); format: functional
PC-3 [7] = test: Cell cycle arrest in human PC-3 cells assessed as accumulation of cells at G1 phase at 5 uM incubated for 48 hrs by PI staining based flow cytometric analysis (reference value: 60.75 %); format: functional
PC-3 [8] = test: Cell cycle arrest in human PC-3 cells assessed as accumulation of cells at S phase at 5 uM incubated for 48 hrs by PI staining based flow cytometric analysis (reference value: 24.79 %); format: functional
PC-3 [9] = test: Cell cycle arrest in human PC-3 cells assessed as accumulation of cells at G2 phase at 5 uM incubated for 48 hrs by PI staining based flow cytometric analysis (reference value: 14.45 %); format: functional
PC-3 [10] = test: Cell cycle arrest in human PC-3 cells assessed as accumulation of cells at G1 phase at 10 uM incubated for 48 hrs by PI staining based flow cytometric analysis (reference value: 60.75 %); format: functional
PC-3 [11] = test: Cell cycle arrest in human PC-3 cells assessed as accumulation of cells at S phase at 10 uM incubated for 48 hrs by PI staining based flow cytometric analysis (reference value: 24.79 %); format: functional
PC-3 [12] = test: Cell cycle arrest in human PC-3 cells assessed as accumulation of cells at G2 phase at 10 uM incubated for 48 hrs by PI staining based flow cytometric analysis (reference value: 14.45 %); format: functional
PC-3 [13] = test: Inhibition of AKT signaling pathway in human PC-3 cells assessed as reduction in phosphorylated GSK3beta level at 1 to 10 uM incubated for 24 hrs by Western blot analysis; format: cell-based; conditions: dose 1-10 µM
PC-3 [14] = test: Upregulation of phosphorylated AKT expression level in human PC-3 cells at 1 to 10 uM incubated for 24 hrs by Western blot analysis; format: functional, cell-based; conditions: dose 1-10 µM
[15] = target: RAC-beta serine/threonine-protein kinase (Homo sapiens) (UniProt P31751); test: Inhibition of AKT2 (unknown origin) using biotin-tagged STK as substrate at 10 nM incubated for 40 mins in presence of ATP by fluorescence based microplate reader analysis relative to control
[16] = target: RAC-gamma serine/threonine-protein kinase (Homo sapiens) (UniProt Q9Y243); test: Inhibition of AKT3 (unknown origin) using biotin-tagged STK as substrate at 10 nM incubated for 40 mins in presence of ATP by fluorescence based microplate reader analysis relative to control
[17] = target: Ribosomal protein S6 kinase alpha-1 (Homo sapiens) (UniProt Q15418); test: Inhibition of RSK1 (unknown origin) at 1 uM relative to control
Homo sapiens [18] = organism: Homo sapiens; test: Inhibition of PKA (unknown origin) at 1 uM relative to control
[19] = target: Ribosomal protein S6 kinase beta-1 (Homo sapiens) (UniProt P23443); test: Inhibition of p70S6K (unknown origin) at 1 uM relative to control
[20] = target: Rho-associated protein kinase 1 (Homo sapiens) (UniProt Q13464); test: Inhibition of ROCK1 (unknown origin) at 1 uM relative to control
Homo sapiens [21] = organism: Homo sapiens; test: Inhibition of ABL (unknown origin) at 1 uM relative to control
[22] = target: Cyclin-dependent kinase 1 (Homo sapiens) (UniProt P06493); test: Inhibition of CDK1 (unknown origin) at 1 uM relative to control
[23] = target: Glycogen synthase kinase-3 beta (Homo sapiens) (UniProt P49841); test: Inhibition of GSK3beta (unknown origin) at 1 uM relative to control
[24] = target: Tyrosine-protein kinase JAK1 (Homo sapiens) (UniProt P23458); test: Inhibition of JAK1 (unknown origin) at 1 uM relative to control
[25] = target: MAP kinase-interacting serine/threonine-protein kinase 1 (Homo sapiens) (UniProt Q9BUB5); test: Inhibition of MNK1 (unknown origin) at 1 uM relative to control
[26] = target: Serine/threonine-protein kinase B-raf (Homo sapiens) (UniProt P15056); test: Inhibition of B-raf (unknown origin) at 1 uM relative to control
[27] = target: RAF proto-oncogene serine/threonine-protein kinase (Homo sapiens) (UniProt P04049); test: Inhibition of RAF-1 (unknown origin) at 1 uM relative to control
[28] = Clearance in male ICR mouse at 1 mg/kg, iv measured after 24 hrs by LC-MS/MS analysis; format: ADME, organism-based; conditions: in vivo
[29] = Half-life in male ICR mouse at 1 mg/kg, iv measured after 24 hrs by LC-MS/MS analysis; format: ADME, organism-based; conditions: in vivo
[30] = AUC (0 to t) in male ICR mouse at 1 mg/kg, iv measured after 24 hrs by LC-MS/MS analysis; format: ADME, organism-based; conditions: in vivo
[31] = AUC (0 to infinity) in male ICR mouse at 1 mg/kg, iv measured after 24 hrs by LC-MS/MS analysis; format: ADME, organism-based; conditions: in vivo
[32] = Volume of distribution in male ICR mouse at 1 mg/kg, iv measured after 24 hrs by LC-MS/MS analysis; format: ADME, organism-based; conditions: in vivo
[33] = MRT (0 to infinity) in male ICR mouse at 1 mg/kg, iv measured after 24 hrs by LC-MS/MS analysis; format: ADME, organism-based; conditions: in vivo
[34] = Half-life in male ICR mouse at 10 mg/kg, po measured after 24 hrs by LC-MS/MS analysis; format: ADME, organism-based; conditions: in vivo
[35] = AUC (0 to t) in male ICR mouse at 10 mg/kg, po measured after 24 hrs by LC-MS/MS analysis; format: ADME, organism-based; conditions: in vivo
[36] = AUC (0 to infinity) in male ICR mouse at 10 mg/kg, po measured after 24 hrs by LC-MS/MS analysis; format: ADME, organism-based; conditions: in vivo
[37] = MRT (0 to infinity) in male ICR mouse at 10 mg/kg, po measured after 24 hrs by LC-MS/MS analysis; format: ADME, organism-based; conditions: in vivo
[38] = Tmax in male ICR mouse at 10 mg/kg, po measured after 24 hrs by LC-MS/MS analysis; format: ADME, organism-based; conditions: in vivo
[39] = Cmax in male ICR mouse at 10 mg/kg, po measured after 24 hrs by LC-MS/MS analysis; format: ADME, organism-based; conditions: in vivo
[40] = Oral bioavailability in male ICR mouse at 10 mg/kg measured after 24 hrs by LC-MS/MS analysis; format: ADME, organism-based; conditions: in vivo

Sequence of Glycogen synthase kinase-3 beta (Homo sapiens) (P49841 whole entry, looked up): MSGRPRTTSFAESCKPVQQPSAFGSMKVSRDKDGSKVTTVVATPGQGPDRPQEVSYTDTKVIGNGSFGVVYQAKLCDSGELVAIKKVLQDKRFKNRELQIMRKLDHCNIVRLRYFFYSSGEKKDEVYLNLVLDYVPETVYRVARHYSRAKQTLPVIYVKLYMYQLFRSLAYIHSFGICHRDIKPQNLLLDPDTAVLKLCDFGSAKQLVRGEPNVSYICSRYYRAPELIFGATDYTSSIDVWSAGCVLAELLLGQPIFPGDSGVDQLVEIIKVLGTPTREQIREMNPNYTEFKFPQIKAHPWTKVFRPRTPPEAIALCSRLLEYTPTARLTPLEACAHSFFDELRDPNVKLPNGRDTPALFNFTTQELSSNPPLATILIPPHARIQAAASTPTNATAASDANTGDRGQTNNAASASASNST
Sequence of Ribosomal protein S6 kinase beta-1 (Homo sapiens) (P23443 whole entry, looked up): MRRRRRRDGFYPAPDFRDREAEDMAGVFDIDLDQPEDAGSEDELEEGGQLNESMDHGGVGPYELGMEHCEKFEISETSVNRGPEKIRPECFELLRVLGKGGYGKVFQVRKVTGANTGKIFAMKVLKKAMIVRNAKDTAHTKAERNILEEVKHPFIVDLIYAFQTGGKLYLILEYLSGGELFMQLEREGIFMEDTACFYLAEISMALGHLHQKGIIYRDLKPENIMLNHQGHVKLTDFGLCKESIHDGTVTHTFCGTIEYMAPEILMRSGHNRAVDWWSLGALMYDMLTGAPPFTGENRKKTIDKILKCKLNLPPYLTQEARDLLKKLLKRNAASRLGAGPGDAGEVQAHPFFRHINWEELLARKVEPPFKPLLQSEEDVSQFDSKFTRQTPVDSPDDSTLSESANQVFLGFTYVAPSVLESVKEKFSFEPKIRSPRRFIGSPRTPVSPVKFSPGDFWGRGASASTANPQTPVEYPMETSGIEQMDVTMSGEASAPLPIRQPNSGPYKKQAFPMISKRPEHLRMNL
Sequence of Cyclin-dependent kinase 1 (Homo sapiens) (P06493 whole entry, looked up): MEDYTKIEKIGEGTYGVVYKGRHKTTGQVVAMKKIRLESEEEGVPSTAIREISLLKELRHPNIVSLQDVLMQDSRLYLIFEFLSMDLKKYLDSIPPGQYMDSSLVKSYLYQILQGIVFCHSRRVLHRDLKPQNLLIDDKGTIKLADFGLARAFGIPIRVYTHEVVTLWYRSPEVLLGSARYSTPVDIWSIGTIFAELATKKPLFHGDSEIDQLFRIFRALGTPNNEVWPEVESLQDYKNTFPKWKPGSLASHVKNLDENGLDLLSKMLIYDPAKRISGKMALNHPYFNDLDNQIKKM
Sequence of Serine/threonine-protein kinase B-raf (Homo sapiens) (P15056 whole entry): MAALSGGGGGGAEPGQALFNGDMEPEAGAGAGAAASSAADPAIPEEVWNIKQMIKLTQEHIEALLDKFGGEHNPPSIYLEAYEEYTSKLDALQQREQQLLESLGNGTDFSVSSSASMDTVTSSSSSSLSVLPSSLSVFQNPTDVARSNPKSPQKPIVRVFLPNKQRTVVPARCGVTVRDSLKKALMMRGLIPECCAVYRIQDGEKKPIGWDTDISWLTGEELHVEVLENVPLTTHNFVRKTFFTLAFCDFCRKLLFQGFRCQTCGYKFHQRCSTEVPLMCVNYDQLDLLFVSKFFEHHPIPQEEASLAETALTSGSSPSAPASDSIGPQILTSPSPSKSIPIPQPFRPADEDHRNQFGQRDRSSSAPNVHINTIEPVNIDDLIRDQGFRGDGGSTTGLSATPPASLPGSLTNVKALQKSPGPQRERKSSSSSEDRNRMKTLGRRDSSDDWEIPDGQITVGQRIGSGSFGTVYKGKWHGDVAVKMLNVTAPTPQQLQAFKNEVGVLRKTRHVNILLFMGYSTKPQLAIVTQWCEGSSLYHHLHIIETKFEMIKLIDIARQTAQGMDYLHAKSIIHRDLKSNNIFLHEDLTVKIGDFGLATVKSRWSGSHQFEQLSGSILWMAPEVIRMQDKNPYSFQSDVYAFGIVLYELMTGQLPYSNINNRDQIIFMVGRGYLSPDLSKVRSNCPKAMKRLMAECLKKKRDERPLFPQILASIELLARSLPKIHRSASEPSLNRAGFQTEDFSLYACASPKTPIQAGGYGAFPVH
Sequence of RAC-gamma serine/threonine-protein kinase (Homo sapiens) (Q9Y243 whole entry): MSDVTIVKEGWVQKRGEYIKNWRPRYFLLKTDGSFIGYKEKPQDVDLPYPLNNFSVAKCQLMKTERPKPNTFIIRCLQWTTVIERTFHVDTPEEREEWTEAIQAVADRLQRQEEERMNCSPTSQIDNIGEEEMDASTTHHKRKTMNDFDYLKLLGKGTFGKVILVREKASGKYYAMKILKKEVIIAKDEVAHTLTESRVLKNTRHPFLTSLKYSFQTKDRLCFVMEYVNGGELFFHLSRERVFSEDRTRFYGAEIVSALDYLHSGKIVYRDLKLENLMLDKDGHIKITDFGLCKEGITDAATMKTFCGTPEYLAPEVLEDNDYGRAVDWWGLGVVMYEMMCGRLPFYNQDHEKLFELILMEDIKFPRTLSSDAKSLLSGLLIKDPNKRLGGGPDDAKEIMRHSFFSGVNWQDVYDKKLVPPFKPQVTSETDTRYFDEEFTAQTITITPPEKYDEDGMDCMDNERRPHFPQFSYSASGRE
Sequence of Tyrosine-protein kinase JAK1 (Homo sapiens) (P23458 whole entry): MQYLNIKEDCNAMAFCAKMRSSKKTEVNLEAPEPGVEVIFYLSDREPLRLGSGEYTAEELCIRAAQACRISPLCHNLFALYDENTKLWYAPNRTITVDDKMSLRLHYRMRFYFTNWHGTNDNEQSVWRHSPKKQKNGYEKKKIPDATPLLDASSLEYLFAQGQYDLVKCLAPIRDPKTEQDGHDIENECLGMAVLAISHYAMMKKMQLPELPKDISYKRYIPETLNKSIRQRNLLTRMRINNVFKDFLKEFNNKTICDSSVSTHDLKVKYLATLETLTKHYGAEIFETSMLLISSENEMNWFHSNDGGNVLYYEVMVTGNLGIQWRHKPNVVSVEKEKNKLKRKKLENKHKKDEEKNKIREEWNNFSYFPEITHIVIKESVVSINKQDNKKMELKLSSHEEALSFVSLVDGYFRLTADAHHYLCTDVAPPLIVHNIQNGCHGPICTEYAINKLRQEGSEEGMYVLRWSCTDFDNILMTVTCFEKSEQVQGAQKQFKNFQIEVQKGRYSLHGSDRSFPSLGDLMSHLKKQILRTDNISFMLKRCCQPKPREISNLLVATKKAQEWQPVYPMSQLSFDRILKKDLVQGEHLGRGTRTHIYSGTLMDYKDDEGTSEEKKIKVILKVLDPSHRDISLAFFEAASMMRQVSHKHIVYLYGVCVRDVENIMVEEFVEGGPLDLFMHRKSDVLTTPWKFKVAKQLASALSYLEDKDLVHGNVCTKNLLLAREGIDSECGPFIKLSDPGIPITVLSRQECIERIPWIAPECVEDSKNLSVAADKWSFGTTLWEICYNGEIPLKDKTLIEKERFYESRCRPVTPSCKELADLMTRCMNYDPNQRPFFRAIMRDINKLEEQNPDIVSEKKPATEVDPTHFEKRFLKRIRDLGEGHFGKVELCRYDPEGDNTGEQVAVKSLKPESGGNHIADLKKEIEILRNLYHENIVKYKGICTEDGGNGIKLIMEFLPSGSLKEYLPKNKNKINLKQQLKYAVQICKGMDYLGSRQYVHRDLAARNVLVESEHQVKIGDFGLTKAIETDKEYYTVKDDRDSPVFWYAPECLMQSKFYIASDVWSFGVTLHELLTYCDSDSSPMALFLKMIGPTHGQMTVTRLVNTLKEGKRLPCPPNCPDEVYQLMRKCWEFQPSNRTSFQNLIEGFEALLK
Sequence of MAP kinase-interacting serine/threonine-protein kinase 1 (Homo sapiens) (Q9BUB5 whole entry, looked up): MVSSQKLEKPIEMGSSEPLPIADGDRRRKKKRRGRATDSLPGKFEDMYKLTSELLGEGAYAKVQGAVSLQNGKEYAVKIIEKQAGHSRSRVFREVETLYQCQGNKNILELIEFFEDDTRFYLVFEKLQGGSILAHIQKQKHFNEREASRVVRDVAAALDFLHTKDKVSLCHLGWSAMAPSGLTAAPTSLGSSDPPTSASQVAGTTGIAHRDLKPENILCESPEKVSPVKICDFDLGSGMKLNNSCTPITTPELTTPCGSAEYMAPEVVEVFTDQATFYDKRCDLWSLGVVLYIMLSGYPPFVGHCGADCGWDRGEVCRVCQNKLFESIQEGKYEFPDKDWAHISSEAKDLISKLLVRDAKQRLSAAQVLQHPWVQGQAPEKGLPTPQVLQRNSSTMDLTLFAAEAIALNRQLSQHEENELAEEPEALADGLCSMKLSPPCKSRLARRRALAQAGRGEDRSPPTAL
Sequence of RAF proto-oncogene serine/threonine-protein kinase (Homo sapiens) (P04049 whole entry): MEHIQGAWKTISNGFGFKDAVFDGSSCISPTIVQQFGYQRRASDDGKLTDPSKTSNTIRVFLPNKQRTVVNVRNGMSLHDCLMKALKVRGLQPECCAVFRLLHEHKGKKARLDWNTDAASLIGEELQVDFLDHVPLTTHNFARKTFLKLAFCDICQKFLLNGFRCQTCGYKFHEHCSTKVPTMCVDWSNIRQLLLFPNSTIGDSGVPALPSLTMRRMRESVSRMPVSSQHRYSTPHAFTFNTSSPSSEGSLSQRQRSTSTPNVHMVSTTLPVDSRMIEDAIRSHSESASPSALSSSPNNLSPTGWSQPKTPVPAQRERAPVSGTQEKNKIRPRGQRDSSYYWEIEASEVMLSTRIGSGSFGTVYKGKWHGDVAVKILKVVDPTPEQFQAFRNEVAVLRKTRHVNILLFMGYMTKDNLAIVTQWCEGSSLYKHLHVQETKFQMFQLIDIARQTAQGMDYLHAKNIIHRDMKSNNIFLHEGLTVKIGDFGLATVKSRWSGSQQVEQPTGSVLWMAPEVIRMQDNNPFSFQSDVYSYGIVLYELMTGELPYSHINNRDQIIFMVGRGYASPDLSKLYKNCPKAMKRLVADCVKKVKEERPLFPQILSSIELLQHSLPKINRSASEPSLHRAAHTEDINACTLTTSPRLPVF

IC50 (PC-3 [1]): > 40 µM
SMILES: CNc1nccc(N2CCN(C(=O)C(CNC(C)C)c3ccc(Br)cc3)CC2)n1 (stereo not given)

IC50 (PC-3 [1]): 2.9 µM
SMILES: CC(C)NCC(C(=O)N1CCN(c2ncnc3[nH]nc(Cl)c23)CC1)c1ccc(Br)cc1 (stereo not given)
Activity (PC-3 [2]): 15.13%
Activity (PC-3 [3]): >20%
Activity (PC-3 [4]): 52.46%
Activity (PC-3 [5]): 32.69%
Activity (PC-3 [6]): 14.35%
Activity (PC-3 [7]): 53.89%
Activity (PC-3 [8]): 36.86%
Activity (PC-3 [9]): 9.25%
Activity (PC-3 [10]): 46.45%
Activity (PC-3 [11]): 47.17%
Activity (PC-3 [12]): 6.37%
inhibition (PC-3 [13]): Active
Activity (PC-3 [14]): Active; Negative Feedback Regulation Within Akt Signaling Pathway Observed

IC50 (PC-3 [1]): 3.5 µM
SMILES: CC(C)NCC(C(=O)N1CCN(c2ncnc3[nH]nc(Cl)c23)CC1)c1ccc(Cl)cc1Cl (stereo not given)

IC50 (PC-3 [1]): 4.9 µM
SMILES: CNc1nc(N2CCN(C(=O)C(CNC(C)C)c3ccc(Br)cc3)CC2)c2sccc2n1 (stereo not given)

IC50 (PC-3 [1]): 8.7 µM
SMILES: CNc1nc(N2CCN(C(=O)C(CNC(C)C)c3ccc(Br)cc3)CC2)c2cc[nH]c2n1 (stereo not given)

IC50 (PC-3 [1]): 22 µM
SMILES: Cc1c[nH]c2ncnc(N3CCN(C(=O)C(CNC(C)C)c4ccc(Cl)cc4Cl)CC3)c12 (stereo not given)

inhibition [15]: 64%
inhibition [16]: 89%
inhibition [17]: 99%
inhibition (Homo sapiens [18]): 98%
inhibition [19]: 101%
inhibition [20]: 91%
inhibition (Homo sapiens [21]): < 60%
inhibition [22]: < 60%
inhibition [23]: < 60%
inhibition [24]: < 60%
inhibition [25]: < 60%
inhibition [26]: < 60%
inhibition [27]: < 60%
clearance [28]: 78.6 mL/min/kg
half-life [29]: 1.85 h
AUC(0-t) at 24 h [30]: 202 ng·h/mL
AUC(0-inf) [31]: 214 ng·h/mL
Vd [32]: 12.3 L/kg
MRT inf [33]: 1.68 h
half-life [34]: 1.59 h
AUC(0-t) at 24 h [35]: 830 ng·h/mL
AUC(0-inf) [36]: 876 ng·h/mL
MRT inf [37]: 2.43 h
Tmax [38]: 0.5 h
Cmax [39]: 306 ng/mL
bioavailability [40]: 41%
IC50 (PC-3 [1]): 3 µM
SMILES: CC(C)NCC(C(=O)N1CCN(c2ncnc3[nH]nc(Br)c23)CC1)c1ccc(Br)cc1 (stereo not given)
Activity (PC-3 [2]): 12.28%
Activity (PC-3 [3]): >20%
Activity (PC-3 [4]): 49.42%
Activity (PC-3 [5]): 38.35%
Activity (PC-3 [6]): 12.24%
Activity (PC-3 [7]): 53.21%
Activity (PC-3 [8]): 36.75%
Activity (PC-3 [9]): 10.04%
Activity (PC-3 [10]): 52.45%
Activity (PC-3 [11]): 38.31%
Activity (PC-3 [12]): 9.23%
inhibition (PC-3 [13]): Active
Activity (PC-3 [14]): Active; Negative Feedback Regulation Within Akt Signaling Pathway Observed

IC50 (PC-3 [1]): 23.8 µM
SMILES: CC(C)NCC(C(=O)N1CCN(c2ncnc3[nH]cnc23)CC1)c1ccc(Cl)cc1Cl (stereo not given)

IC50 (PC-3 [1]): > 40 µM
SMILES: CC(C)NCC(C(=O)N1CCN(c2ncnc3[nH]ncc23)CC1)c1ccc(Cl)cc1Cl (stereo not given)

Second part, the molecule before the results:

SMILES: CNc1nc(N2CCN(C(=O)C(CNC(C)C)c3ccc(Cl)cc3Cl)CC2)c2sccc2n1 (stereo not given)
IC50 (PC-3 [1]): 5.9 µM

SMILES: CC(C)NCC(C(=O)N1CCN(c2ncnc3ccccc23)CC1)c1ccc(Cl)cc1Cl (stereo not given)
IC50 (PC-3 [1]): > 40 µM

SMILES: Cc1c[nH]c2ncnc(N3CCN(C(=O)C(CNC(C)C)c4ccc(Br)cc4)CC3)c12 (stereo not given)
IC50 (PC-3 [1]): 15.8 µM

SMILES: CCn1c(-c2nonc2N)nc2c(C#CC(C)(C)O)ncc(OC[C@H]3CCCNC3)c21 [GSK-690693]
Activity (PC-3 [2]): 10.52%
Activity (PC-3 [4]): 48.89%
Activity (PC-3 [5]): 45.34%
Activity (PC-3 [6]): 5.77%
Activity (PC-3 [7]): 48.64%
Activity (PC-3 [8]): 46.38%
Activity (PC-3 [9]): 4.98%
Activity (PC-3 [10]): 48.79%
Activity (PC-3 [11]): 47.26%
Activity (PC-3 [12]): 3.96%

SMILES: CC(C)NCC(C(=O)N1CCN(c2ncnc3[nH]cnc23)CC1)c1ccc(Br)cc1 (stereo not given)
IC50 (PC-3 [1]): 20.1 µM

SMILES: CC(C)NCC(C(=O)N1CCN(c2ncnc3[nH]ncc23)CC1)c1ccc(Br)cc1 (stereo not given)
IC50 (PC-3 [1]): 12.4 µM

SMILES: CC(C)NCC(C(=O)N1CCN(c2ncnc3[nH]nc(Br)c23)CC1)c1ccc(Cl)cc1Cl (stereo not given)
IC50 (PC-3 [1]): 7.8 µM

SMILES: CNc1nccc(N2CCN(C(=O)C(CNC(C)C)c3ccc(Cl)cc3Cl)CC2)n1 (stereo not given)
IC50 (PC-3 [1]): 27.8 µM

SMILES: CNc1nc(N2CCN(C(=O)C(CNC(C)C)c3ccc(Cl)cc3Cl)CC2)c2cc[nH]c2n1 (stereo not given)
IC50 (PC-3 [1]): 18.1 µM

SMILES: CC(C)NCC(C(=O)N1CCN(c2ncnc3ccccc23)CC1)c1ccc(Br)cc1 (stereo not given)
IC50 (PC-3 [1]): 30.2 µM
